The text below walks through data of US7902238B2, “2-aminooxazolines as TAAR1 ligands” (Hoffmann-La Roche Inc., priority 2007, dated 2011).

SMILES strings stand for the structures.

In test [1] the target is TAAR1. Description: Calculated Kd of the radioligand used in the TAAR1 binding assay. As to conditions: species not stated. How it is done: Each experiment was performed in duplicate.
Test [2] has as its target rat TAAR1 (Rattus norvegicus, UniProt Q923Y9). Put plainly: Radioligand binding on membranes of HEK293 cells stably expressing rat TAAR1.
The target in test [3] is mouse TAAR1 (Mus musculus, UniProt Q923Y8). Description: Radioligand binding on membranes of HEK293 cells stably expressing mouse TAAR1.
Chain of mouse TAAR1 (Q923Y8 whole entry): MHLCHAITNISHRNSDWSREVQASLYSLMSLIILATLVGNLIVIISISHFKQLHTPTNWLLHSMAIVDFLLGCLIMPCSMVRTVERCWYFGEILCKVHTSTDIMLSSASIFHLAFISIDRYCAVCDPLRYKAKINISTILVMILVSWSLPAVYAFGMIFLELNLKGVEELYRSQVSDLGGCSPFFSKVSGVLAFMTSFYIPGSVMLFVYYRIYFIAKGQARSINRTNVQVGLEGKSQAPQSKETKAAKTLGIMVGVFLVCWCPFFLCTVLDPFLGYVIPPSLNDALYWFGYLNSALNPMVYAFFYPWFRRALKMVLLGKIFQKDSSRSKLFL

Chain of rat TAAR1 (Q923Y9 whole entry): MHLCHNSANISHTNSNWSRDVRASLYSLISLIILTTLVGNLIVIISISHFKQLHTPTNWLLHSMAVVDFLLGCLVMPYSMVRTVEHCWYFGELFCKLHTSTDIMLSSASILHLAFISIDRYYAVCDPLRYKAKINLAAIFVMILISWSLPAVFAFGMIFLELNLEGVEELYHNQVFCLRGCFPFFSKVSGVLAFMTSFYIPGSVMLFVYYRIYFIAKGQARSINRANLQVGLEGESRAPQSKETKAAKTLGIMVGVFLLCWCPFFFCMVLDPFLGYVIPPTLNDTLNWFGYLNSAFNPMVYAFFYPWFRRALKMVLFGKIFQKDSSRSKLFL

Regarding `c1ccc2c(c1)CCCC2C1=NCCN1` (racemic), in test [1], the Kd is 60 nM.
As to `CCN(C[C@H]1COC(N)=N1)c1cccc(-c2cnco2)c1` [Example 106, (S)-4-{[Ethyl-(3-oxazol-5-yl-phenyl)-amino]-methyl}-4,5-dihydro-oxazol-2-ylamine], the Ki in test [2] turned out to be 18.8 nM; in test [3], 4.1 nM.
As to `CCN(C[C@@H]1COC(N)=N1)c1ccccc1` [Example 1, (R)-4-[(Ethyl-phenyl-amino)-methyl]-4,5-dihydro-oxazol-2-ylamine], the Ki amounted to 1.9 nM in test [2] and 0.9 nM in test [3].
Consider `CCN(C[C@@H]1COC(N)=N1)c1cc(F)cc(C(F)(F)F)c1` [Example 167, (R)-4-{[Ethyl-(3-fluoro-5-trifluoromethyl-phenyl)-amino]-methyl}-4,5-dihydro-oxazol-2-ylamine], for which the Ki was 9.7 nM in test [2] and 5.1 nM in test [3].
Turning to `CC(C)N(C[C@@H]1COC(N)=N1)c1ccc(Cl)cc1` [Example 129, (R)-4-{[(4-Chloro-phenyl)-isopropyl-amino]-methyl}-4,5-dihydro-oxazol-2-ylamine], the Ki in test [2] stood at 2.7 nM; in test [3], 8.8 nM.
In the same order, the values of `CN(C[C@H]1COC(N)=N1)c1ccc(Br)cc1` [Example 31, (S)-4-{[(4-Bromo-phenyl)-methyl-amino]-methyl}-4,5-dihydro-oxazol-2-ylamine] are 1.9 nM and 1.3 nM.
In the same order, the values of `COc1cc(N(C)C[C@H]2COC(N)=N2)ccc1Cl` [Example 27, (S)-4-{[(4-Chloro-3-methoxy-phenyl)-methyl-amino]-methyl}-4,5-dihydro-oxazol-2-ylamine] are 1.6 nM and 7.3 nM.
Taken in the same sequence, the figures for `Cc1ccc(NC[C@H]2COC(N)=N2)c(F)c1` [Example 117, (S)-4-[(2-Fluoro-4-methyl-phenylamino)-methyl]-4,5-dihydro-oxazol-2-ylamine] were 18.2 nM and 2.8 nM.
As for `CN(C[C@H]1COC(N)=N1)c1cccc(-c2cnco2)c1` [Example 105, (S)-4-{[Methyl-(3-oxazol-5-yl-phenyl)-amino]-methyl}-4,5-dihydro-oxazol-2-ylamine], the Ki in test [2] stood at 63.5 nM; in test [3], 3.8 nM.
For the molecule `NC1=N[C@@H](CN(Cc2ccccc2)c2ccc(F)cc2)CO1` [Example 53, (S)-4-{[Benzyl-(4-fluoro-phenyl)-amino]-methyl}-4,5-dihydro-oxazol-2-ylamine], the Ki in test [2] came out at 0.9 nM; in test [3], 18.7 nM.
As to `CN(C[C@@H]1COC(N)=N1)c1ccc(F)cc1` [Example 128, (R)-4-{[(4-Fluoro-phenyl)-methyl-amino]-methyl}-4,5-dihydro-oxazol-2-ylamine], the figures for the Ki in test [2] and in test [3] were 11.6 nM and 4.7 nM, respectively.
In the case of `CCN(C[C@H]1COC(N)=N1)c1cc(Cl)cc(Cl)c1` [Example 165, (S)-4-{[(3,5-Dichloro-phenyl)-ethyl-amino]-methyl}-4,5-dihydro-oxazol-2-ylamine], the Ki in test [2] is 0.9 nM; in test [3] it was 1.4 nM.
In the case of `CC(C)N(C[C@H]1COC(N)=N1)c1ccc(Cl)c(Cl)c1` [Example 15, (S)-4-{[(3,4-Dichloro-phenyl)-isopropyl-amino]-methyl}-4,5-dihydro-oxazol-2-ylamine], the Ki was 0.8 nM in test [2] and 22.4 nM in test [3].
Taken in the same sequence, the figures for `CN(C[C@H]1COC(N)=N1)c1ccc(Cl)c(Cl)c1` [Example 7, (S)-4-{[(3,4-Dichloro-phenyl)-methyl-amino]-methyl}-4,5-dihydro-oxazol-2-ylamine] were 0.3 nM and 1.4 nM.
In the case of `CCN(C[C@H]1COC(N)=N1)c1ccc(Cl)cc1` [Example 11, (S)-4-{[(4-Chloro-phenyl)-ethyl-amino]-methyl}-4,5-dihydro-oxazol-2-ylamine], the Ki in test [2] amounted to 0.9 nM; in test [3], 3.5 nM.
As to `CN(C[C@H]1COC(N)=N1)c1ccc(C(F)(F)F)cc1` [Example 134, (S)-4-{[Methyl-(4-trifluoromethyl-phenyl)-amino]-methyl}-4,5-dihydro-oxazol-2-ylamine], the Ki came to 3.6 nM in test [2] and 5.7 nM in test [3].
Turning to `CCN(C[C@H]1COC(N)=N1)c1ccc(Cl)c(Cl)c1` [Example 33, (S)-4-{[(3,4-Dichloro-phenyl)-ethyl-amino]-methyl}-4,5-dihydro-oxazol-2-ylamine], the Ki in test [2] came out at 0.2 nM; in test [3] it was 2.2 nM.
Turning to `CCN(C[C@@H]1COC(N)=N1)c1ccc(Cl)c(OC)c1` [Example 141, (R)-4-{[(4-Chloro-3-methoxy-phenyl)-ethyl-amino]-methyl}-4,5-dihydro-oxazol-2-ylamine], the inhibition constant Ki in test [2] stood at 0.9 nM; in test [3], 3.4 nM.
Regarding `CCN(C[C@H]1COC(N)=N1)c1cc(F)cc(C(F)(F)F)c1` [Example 109, (S)-4-{[Ethyl-(3-fluoro-5-trifluoromethyl-phenyl)-amino]-methyl}-4,5-dihydro-oxazol-2-ylamine], the results for the inhibition constant Ki in test [2] and in test [3] were 1.7 nM and 2.5 nM, respectively.
Consider `CN(C[C@@H]1COC(N)=N1)c1ccc2ccccc2c1` [Example 162, (R)-4-[(Methyl-naphthalen-2-yl-amino)-methyl]-4,5-dihydro-oxazol-2-ylamine], for which the Ki in test [2] stood at 15.5 nM; in test [3] it was 7.7 nM.
Consider `CN(C[C@H]1COC(N)=N1)c1ccccc1` [Example 30, (S)-4-[(Methyl-phenyl-amino)-methyl]-4,5-dihydro-oxazol-2-ylamine], for which the Ki in test [2] was found to be 1.7 nM; in test [3] it was 16.3 nM.
In the case of `CCN(C[C@H]1COC(N)=N1)c1ccccc1Cl` [Example 111, (S)-4-{[(2-Chloro-phenyl)-ethyl-amino]-methyl}-4,5-dihydro-oxazol-2-ylamine], the Ki amounted to 58.7 nM in test [2] and 6 nM in test [3].
